Assay results: patent EP3002287B1, “Thiochromeno[2,3-c]quinolin-12-one derivatives and their use as topoisomerase inhibitors” (National Defense Medical Center, priority 2014, dated 2016)
Like-named read-outs stand apart in the source and are kept apart here.

Assays:
DU-145 = test: MTT assay for cell cytotoxicity; assay type: cell-based, human; settings: 72 h, at least three independent experiments, read-out: MTT assay (IC50 ± SD) DU-145
Description: (§1) All of synthesis compounds were evaluated cell cytotoxicity by using MTT colorimetric assay on PC-3 and DU-145 cell lines. DU-145 and PC-3 are human hormone-refractory (androgen-independent) prostatic cancer cell lines from American Type Culture Collection (HTB-81™, ATCC, Rockville, MD)^125 and Bioresource Collection and Research Center (60122, BCRC, Taiwan)^126, respectively. Two of the "classical" cell lines were cultivated in RPMI-1640 medium supplemented with 5% fetal bovine serum (v/v), 100 U/mL penicillin, and […] streptomycin. Approximately 2 x 10^3 cells were seeded into each well of a 96-well plate and incubated in 5% CO2 at 37 °C for 24 h. To evaluate the in vitro cytotoxicity, all the synthetic compounds were dissolved in DMSO, prepared immediately before the experiments and diluted into the complete medium before being added to each well of a 96-well plate. Each compound was then added to the culture medium for designated various concentrations (0.15, 0.5, 1.5, 5, 15 µM). After 72 h, an amount of 100 µL of MTT (1 mg/mL) was added to each well, and the samples were incubated at 37 °C for 4 h. After removing the MTT solution, 100 µL of DMSO was added to each well and incubated at 37 °C for another 20 mins. The absorbency at 560 nm was measured by using an ELISA reader.
(§2) Results are expressed as mean values of at least three independent experiments. The IC50 values of testing compounds were described in Table 1. Table1. Effects of 10-Chloro-12H-thiochromeno[2,3-c]quinolin -12-one derivatives on cytotoxicity by MTT assay.

PC-3 = test: MTT assay for cell cytotoxicity; assay type: cell-based, human; settings: 72 h, at least three independent experiments, read-out: MTT assay (IC50 ± SD) PC-3
Description: as §1, §2

Row | Compound | IC50 (DU-145; Homo sapiens) | IC50 (PC-3; Homo sapiens) | IC50 (DU-145) | IC50 (PC-3)
1 | CC[C@@]1(O)C(=O)OCc2c1cc1n(c2=O)Cc2cc3ccccc3nc2-1 [Camptothecin, reference compound] | 0.1 ± 0.01 µM | 0.1 ± 0.01 µM | – | –
2 | CCN1CCN(c2nc3ccccc3c3c(=O)c4cc(Cl)ccc4sc23)CC1 [Compound 9, 10-Chloro-6-(4-ethylpiperazin-1-yl)-12H-thiochromeno[2,3-c]q uinolin-12-one] | > 15 µM | 12 ± 3.41 µM | – | –
3 | O=c1c2cc(Cl)ccc2sc2c(N3CCSCC3)nc3ccccc3c12 [Compound 14, 10-Chloro-6-thiomorpholino-12H thiochromeno[2,3-c]quinolin-12-one] | > 15 µM | > 15 µM | – | –
4 | O=c1c2cc(Cl)ccc2sc2c(N3CCCCC3)nc3ccccc3c12 [Compound 15, 10-Chloro-6-(piperidin-1-yl)-12H-thiochromeno[2,3-c]quinolin-12-one] | 13.4 ± 2.87 µM | > 15 µM | – | –
5 | O=c1c2cc(Cl)ccc2sc2c(N3CCC(O)CC3)nc3ccccc3c12 [Compound 16, 10-Chloro-6-(4-hydroxypiperidin-1-yl)-12H-thiochromeno[2,3-c]quinolin-12-one] | 11.1 ± 4.18 µM | 9.55 ± 2.42 µM | – | –
6 | O=c1c2cc(Cl)ccc2sc2c(N3CCC(Cc4ccccc4)CC3)nc3ccccc3c12 [Compound 17, 6-(4-Benzylpiperidin-1-yl)-10-chloro-12H-thiochromeno[2,3-c]q uinolin-12-one] | > 15 µM | > 15 µM | – | –
7 | O=c1c2cc(Cl)ccc2sc2c(N3CCC(N4CCCCC4)CC3)nc3ccccc3c12 [Compound 18, 6-([1,4'-Bipiperidin]-1'-yl)-10-chloro-12H-thiochromeno[2,3-c]q uinolin-12-one] | 10.2 ± 2.03 µM | 14.2 ± 1.41 µM | – | –
8 | O=c1c2cc(Cl)ccc2sc2c(N3CCC(CCCC4CCNCC4)CC3)nc3ccccc3c12 [Compound 19, 10-Chloro-6-(4-(3-(piperidin-4-yl)propyl)piperidin-1yl)-12H-thi ochromeno[2,3-c]quinolin-12-one] | 9.02 ± 1.2 µM | 6.36 ± 0.17 µM | – | –
9 | O=c1c2cc(Cl)ccc2sc2c(N3CCCC3)nc3ccccc3c12 [Compound 20, 10-Chloro-6-(pyrrolidin-1-yl)-12H-thiochromeno[2,3-c]quinolin-12-one] | > 15 µM | > 15 µM | – | –
10 | O=C1CCCCN1c1nc2ccccc2c2c(=O)c3cc(Cl)ccc3sc12 [Compound 21, 10-chloro-6-(2-oxopiperidin-1-yl)-12H-thiochromeno[2,3-c]quin olin-12-one] | 11.1 ± 4.18 µM | 9.55 ± 2.42 µM | – | –
11 | CNc1nc2ccccc2c2c(=O)c3cc(Cl)ccc3sc12 [Compound N1, 10-Chloro-6-methylamino-12H-thiochromeno[2,3-c]quinolin-12-one] | 11.7 ± 5.15 µM | 14.5 ± 2.7 µM | – | –
12 | CCNc1nc2ccccc2c2c(=O)c3cc(Cl)ccc3sc12 [Compound N2, 10-Chloro-6-ethylamino-12H-thiochromeno[2,3-c]quinolin-12-one] | 6.7 ± 1.62 µM | 5.18 ± 2.2 µM | – | –
13 | CCCNc1nc2ccccc2c2c(=O)c3cc(Cl)ccc3sc12 [Compound N3, 10-Chloro-6 propylamino-12H-thiochromeno[2,3-c]quinolin-1 2-one] | 7.64 ± 2.74 µM | 7.41 ± 3.43 µM | – | –
14 | CCCCNc1nc2ccccc2c2c(=O)c3cc(Cl)ccc3sc12 [Compound N4, 6-(Butylamino)-10-chloro-12H-thiochromeno[2,3-c]quinolin-1 2-one] | 10.3 ± 2.46 µM | 10.1 ± 1.32 µM | – | –
15 | CC(C)CNc1nc2ccccc2c2c(=O)c3cc(Cl)ccc3sc12 [Compound N5, 10-Chloro-6-isobutylamino-12H-thiochromeno[2,3-c]quinolin-12-one] | > 15 µM | > 15 µM | – | –
16 | CCC(CC)Nc1nc2ccccc2c2c(=O)c3cc(Cl)ccc3sc12 [Compound N6, 10-Chloro-6-(pentan-3-ylamino)-12H-thiochromeno[2,3-c]quin olin-12-one] | > 15 µM | > 15 µM | – | –
17 | O=c1c2cc(Cl)ccc2sc2c(NCCO)nc3ccccc3c12 [Compound N9, 10-Chloro-6-(2-ethanolamino)-12H-thiochromeno[2,3-c]quinol in-12-one] | – | – | 11.6 ± 7.23 µM | 7.48 ± 3.35 µM
18 | O=c1c2cc(Cl)ccc2sc2c(NCCCO)nc3ccccc3c12 [Compound N10, 10-Chloro-6-(3-propanolamino)-12H-thiochromeno[2,3-c]quin olin-12-one] | – | – | 5.94 ± 2.03 µM | 6.31 ± 4.11 µM
19 | O=c1c2cc(Cl)ccc2sc2c(NCCCCCO)nc3ccccc3c12 [Compound N11, 10-Chloro-6-(5-pentanolamino)-12H-thiochromeno[2,3-c]quin olin-12-one] | – | – | 4.95 ± 0.58 µM | 8.38 ± 3.39 µM
20 | CCC(CO)Nc1nc2ccccc2c2c(=O)c3cc(Cl)ccc3sc12 (centres unmarked) [Compound N12, 10-Chloro-6-((1-hydroxybutan-2yl)amino)-12H-thiochromeno[2,3-c]quinolin-12-one] | 6.74 ± 2.14 µM | 7.05 ± 2.48 µM | – | –
21 | CC(C)CC(C)Nc1nc2ccccc2c2c(=O)c3cc(Cl)ccc3sc12 (centres unmarked) [Compound N13, 10-Chloro-6-((4-methylpentan-2yl)amino)-12H-thiochromeno[2,3-c]quinolin-12-one] | 14.2 ± 1.18 µM | 10.4 ± 2.3 µM | – | –
22 | O=c1c2cc(Cl)ccc2sc2c(NCCN3CCOCC3)nc3ccccc3c12 [Compound N16, 10-Chloro-6-((2-morpholinoethyl)amino)-12H-thiochromeno[2,3-c]quinolin-12-one] | > 15 µM | > 15 µM | – | –
23 | O=c1c2cc(Cl)ccc2sc2c(NC3Cc4ccccc4C3)nc3ccccc3c12 [Compound N20, 10-Chloro-6-((2,3-dihydro-1H-inden-2-yl)amino)-12H-thiochro meno[2,3-c]quinolin-12-one] | 4.86 ± 0.99 µM | 6.2 ± 2.52 µM | – | –
24 | O=c1c2cc(Cl)ccc2sc2c(NC3CCCCC3)nc3ccccc3c12 [Compound N21, 10-Chloro-6-(cyclohexylamino)-12H-thiochromeno[2,3-c]quino lin-12-one] | 8.06 ± 2.08 µM | 7.51 ± 0.22 µM | – | –
25 | O=c1c2cc(Cl)ccc2sc2c(NC3CCN(Cc4ccccc4)CC3)nc3ccccc3c12 [Compound N22, 6-((1-Benzylpiperidin-4-yl)amino)-10-chloro-12H-thiochromen o[2,3-c]quinolin-12-one] | 8.39 ± 1.84 µM | 6.47 ± 0.3 µM | – | –
26 | O=c1c2cc(Cl)ccc2sc2c(NCc3cccs3)nc3ccccc3c12 [Compound N23, 10-Chloro-6-((thiophen-2ylmethyl)amino)-12H-thiochromeno[2,3-c]quinolin-12-one] | 14.7 ± 3.84 µM | > 15 µM | – | –
27 | O=c1c2cc(Cl)ccc2sc2c(NCC3CCCCC3)nc3ccccc3c12 [Compound N24, 10-Chloro-6-((cyclohexylmethyl)amino)-12H-thiochromeno[2,3-c]quinolin-12-one] | 13.6 ± 3.88 µM | 14.8 ± 3.26 µM | – | –
28 | O=c1c2cc(Cl)ccc2sc2c(NCc3ccccn3)nc3ccccc3c12 [Compound N26, 10-Chloro-6-((pyridin-2-ylmethyl)amino)-12H-thiochromeno[2,3-c]quinolin-12-one] | 14.8 ± 1.99 µM | 14.2 ± 2.22 µM | – | –
29 | O=c1c2cc(Cl)ccc2sc2c(NCc3ccc4c(c3)OCO4)nc3ccccc3c12 [Compound N27, 6-((Benzo[d][1,3]dioxol-5-ylmethyl)amino)-10-chloro-12H-thio chromeno[2,3-c]quinolin-12-one] | 11.8 ± 5.83 µM | > 15 µM | – | –
30 | COc1cccc2c1C(=O)c1c(O)c3c(c(O)c1C2=O)C[C@@](O)(C(=O)CO)C[C@@H]3O[C@H]1C[C@H](N)[C@H](O)[C@H](C)O1 [Doxorubicin, reference compound] | 0.12 ± 0.03 µM | – | – | –
